According to ChEMBL document CHEMBL5678800 (Mol Cancer Ther, 2009):
Calls of active or inactive are those of the source. The rule behind the calls is not given here.

Experiments:
[1] = system: IGF-1R-Sal; assay: In vivo inhibition of IGF-1R phosphorylation in mouse IGF-1R-Sal cells xenografted in nude mouse at 12.5 mg/kg, po administered for 8 to 24 hrs by Western blotting analysis; type: functional, organism-based; settings: time lower 8.0 hrs, time upper […]
[2] = Toxicity in nude mouse xenografted with human GEO cells assessed as body weight loss at 6.25 mg/kg, po administered for 3 days in presence of cetuximab at 0.25 mg/kg relative to control; type: organism-based; settings: in vivo, 72 h, time 3 day
[3] = system: GEO; assay: Antitumor activity against human GEO cells xenografted in nude mouse assessed as tumor growth inhibition at 6.25 mg/kg, po administered for 3 days in presence of cetuximab at 0.125 mg/kg relative to control; type: functional; settings: 72 h, time 3 day, read-out: TGI
[4] = system: GEO; assay: Antitumor activity against human GEO cells xenografted in nude mouse assessed as tumor growth inhibition at 6.25 mg/kg, po administered for 17 days relative to control; type: functional; settings: 408 h, time 17 day, read-out: TGI
[5] = Plasma concentration in nude mouse xenografted with mouse IGF-1R-Sal cells po administered for 2 hrs by LC-MS/MS analysis
[6] = system: GEO; assay: Antitumor activity against human GEO cells xenografted in nude mouse assessed as tumor growth delay time at 25 mg/kg, po administered for 3 days in presence of cetuximab at 0.25 mg/kg relative to control; type: functional; settings: time 3 day
[7] = system: GEO; assay: Antitumor activity against human GEO cells xenografted in nude mouse assessed as tumor growth delay time at 6.25 mg/kg, po administered for 17 days relative to control; type: functional; settings: time 17 day
[8] = system: Rh41; assay: Antitumor activity against human Rh41 cells xenografted in nude mouse assessed as tumor growth inhibition at 12 to 50 mg/kg, po administered for 21 days relative to control; type: functional; settings: dose 12-50 mg/kg, time 21 day
[9] = Toxicity in nude mouse xenografted with human GEO cells assessed as mortality at 25 mg/kg, po administered for 3 days in presence of cetuximab at 0.125 mg/kg relative to control; type: organism-based; settings: in vivo, time 3 day
[10] = Toxicity in nude mouse xenografted with human GEO cells assessed as body weight loss at 12.5 mg/kg, po administered for 3 days in presence of cetuximab at 0.25 mg/kg relative to control; type: organism-based; settings: in vivo, 72 h, time 3 day
[11] = system: GEO; assay: Antitumor activity against human GEO cells xenografted in nude mouse assessed as tumor growth inhibition at 25-50 mg/kg, po administered for 14 days relative to control; type: functional; settings: 336 h, time 14 day, read-out: TGI
[12] = system: Mus musculus; assay: Anti-diabetic activity against nude mouse xenografted with mouse IGF-1R-Sal cells assessed as increased serum glucose level at 3.125 mg/kg, po administered for 2 hrs by oral glucose tolerance test (Rvb= 97.40 +/- 5.0 mg/dl); type: functional
[13] = Toxicity in nude mouse xenografted with human GEO cells assessed as body weight loss at 25 mg/kg, po administered for 17 days; type: organism-based; settings: in vivo, 408 h, time 17 day
[14] = system: GEO; assay: Antitumor activity against human GEO cells xenografted in nude mouse assessed as tumor growth delay time at 25 mg/kg, po administered for 17 days relative to control; type: functional; settings: time 17 day
[15] = Toxicity in nude mouse xenografted with human GEO cells assessed as mortality at 6.25 mg/kg, po administered for 3 days in presence of cetuximab at 0.125 mg/kg relative to control; type: organism-based; settings: in vivo, time 3 day
[16] = system: Rh41; assay: Induction of cell cycle arrest in human Rh41 cells assessed as accumulation of cells at sub-G1 phase at 10x IC50 incubated for 24 hrs by propidium iodide staining based flow cytometry analysis (reference value: […])
[17] = system: GEO; assay: Antitumor activity against human GEO cells xenografted in nude mouse assessed as tumor growth delay time at 6.25 mg/kg, po administered for 3 days in presence of cetuximab at 0.25 mg/kg relative to control; type: functional; settings: time 3 day
[18] = Toxicity in nude mouse xenografted with human GEO cells assessed as mortality at 6.25 mg/kg, po administered for 17 days relative to control; type: organism-based; settings: in vivo, time 17 day
[19] = system: GEO; assay: Antitumor activity against human GEO cells xenografted in nude mouse assessed as tumor growth delay time at 6.25 mg/kg, po administered for 3 days in presence of cetuximab at 0.125 mg/kg relative to control; type: functional; settings: time 3 day
[20] = Toxicity in nude mouse xenografted with human GEO cells assessed as body weight loss at 6.25 mg/kg, po administered for 17 days; type: organism-based; settings: in vivo, 408 h, time 17 day
[21] = system: GEO; assay: Antitumor activity against human GEO cells xenografted in nude mouse assessed as tumor growth inhibition at 25 mg/kg, po administered for 3 days in presence of cetuximab at 0.125 mg/kg relative to control; type: functional; settings: 72 h, time 3 day, read-out: TGI
[22] = system: GEO; assay: Antitumor activity against human GEO cells xenografted in nude mouse assessed as tumor growth inhibition at 12.5 mg/kg, po administered for 17 days relative to control; type: functional; settings: 408 h, time 17 day, read-out: TGI
[23] = system: RD1; assay: Antitumor activity against human RD1 cells xenografted in nude mouse assessed as tumor growth inhibition at 50 mg/kg, po administered for 14 days relative to control; settings: 336 h, read-out: TGI
[24] = molecular target: High affinity nerve growth factor receptor (Rattus norvegicus, UniProt P35739); assay: Inhibition of TrkA autophosphorylation in rat CD8-TrkA cells by Western blotting analysis; type: cell-based
High affinity nerve growth factor receptor, sequence (P35739 whole entry): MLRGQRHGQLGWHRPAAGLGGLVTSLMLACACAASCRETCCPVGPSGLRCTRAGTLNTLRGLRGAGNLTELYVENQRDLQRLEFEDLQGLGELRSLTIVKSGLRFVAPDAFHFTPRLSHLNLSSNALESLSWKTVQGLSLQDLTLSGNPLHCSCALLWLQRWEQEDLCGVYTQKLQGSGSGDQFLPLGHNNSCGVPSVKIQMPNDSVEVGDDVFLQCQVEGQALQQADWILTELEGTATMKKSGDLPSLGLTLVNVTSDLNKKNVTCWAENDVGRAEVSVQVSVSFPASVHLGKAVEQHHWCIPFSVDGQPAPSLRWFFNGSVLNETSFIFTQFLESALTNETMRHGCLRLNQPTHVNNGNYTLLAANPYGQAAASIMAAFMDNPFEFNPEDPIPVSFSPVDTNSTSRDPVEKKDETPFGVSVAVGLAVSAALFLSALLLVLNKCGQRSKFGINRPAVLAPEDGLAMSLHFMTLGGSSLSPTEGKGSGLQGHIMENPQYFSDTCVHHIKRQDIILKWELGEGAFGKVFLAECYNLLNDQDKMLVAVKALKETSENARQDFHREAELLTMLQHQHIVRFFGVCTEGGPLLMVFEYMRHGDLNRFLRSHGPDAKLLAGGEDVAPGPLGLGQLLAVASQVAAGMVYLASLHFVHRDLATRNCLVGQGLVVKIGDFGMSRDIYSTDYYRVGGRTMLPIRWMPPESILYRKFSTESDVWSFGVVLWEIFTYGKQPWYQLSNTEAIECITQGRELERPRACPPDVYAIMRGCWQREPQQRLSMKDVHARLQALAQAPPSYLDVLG

[25] = Toxicity in nude mouse xenografted with human GEO cells assessed as body weight loss at 25 mg/kg, po administered for 3 days in presence of cetuximab at 0.125 mg/kg relative to control; type: organism-based; settings: in vivo, 72 h, time 3 day
[26] = Toxicity in nude mouse xenografted with human GEO cells assessed as mortality at 6.25 mg/kg, po administered for 3 days in presence of cetuximab at 0.25 mg/kg relative to control; type: organism-based; settings: in vivo, time 3 day
[27] = Toxicity in nude mouse xenografted with human GEO cells assessed as mortality at 12.5 mg/kg, po administered for 3 days in presence of cetuximab at 0.25 mg/kg relative to control; type: organism-based; settings: in vivo, time 3 day
[28] = Toxicity in nude mouse xenografted with human GEO cells assessed as body weight loss at 12.5 mg/kg, po administered for 3 days in presence of cetuximab at 0.125 mg/kg relative to control; type: organism-based; settings: in vivo, 72 h, time 3 day
[29] = system: Mus musculus; assay: Anti-diabetic activity against nude mouse xenografted with mouse IGF-1R-Sal cells assessed as insulin level at 25 mg/kg, po administered for 2 hrs by ELISA analysis (Rvb= 0.39 +/- […]); type: functional
[30] = system: Rh41; assay: Antitumor activity against human Rh41 cells xenografted in nude mouse assessed as tumor growth inhibition at 3.1 to 25 mg/kg, po administered for 14 days relative to control; type: functional; settings: dose 3.1-25 mg/kg, time 14 day
[31] = system: GEO; assay: Antitumor activity against human GEO cells xenografted in nude mouse assessed as tumor growth inhibition at 12.5 mg/kg, po administered for 3 days in presence of cetuximab at 0.25 mg/kg relative to control; type: functional; settings: 72 h, time 3 day, read-out: TGI
[32] = system: GEO; assay: Antitumor activity against human GEO cells xenografted in nude mouse assessed as tumor growth delay time at 25 mg/kg, po administered for 3 days in presence of cetuximab at 0.125 mg/kg relative to control; type: functional; settings: time 3 day

With C[C@@]1(C(=O)Nc2ccc(F)nc2)CCCN1c1nc(Nc2cc(C3CC3)n[nH]2)c2cccn2n1 [BMS-754807] the inhibition [1] was “Active”, the Activity [2] was 1.4 g and the inhibition in vivo at 6.25 mg/kg [3] was 79%. For the same compound, the inhibition in vivo at 6.25 mg/kg [4] was 24%, the concentration at 2 h [5] was 94 nM and the Time [6] was 24 days. The Time [7] was 3 days, the TGI [8] was 45% and the mortality at 72 h [9] was 0%. The Activity [10] was 1.2 g, the inhibition in vivo at 50 mg/kg [11] was 41% and the Activity [12] was 91 mg/dL. The Activity [13] was -1.5 g, the Time [14] was 7 days and the mortality at 72 h [15] was 0%. The Activity [16] was 23.1%, the Time [17] was 23 days and the mortality at 408 h [18] was 0%. The Time [19] was 20 days, the Activity [20] was -0.4 g and the inhibition in vivo at 25 mg/kg [21] was 89%. The inhibition in vivo at 12.5 mg/kg [22] was 38%, the inhibition in vivo at 50 mg/kg [23] was 58% and the IC50 [24] was 1020 nM. For the same compound, the Activity [25] was 0.6 g, the mortality at 72 h [26] was 0% and the mortality at 72 h [27] was 0%. The Activity [28] was 0.4 g, the Activity [29] was 17.2 ng/mL and the TGI [30] was 65%. It also gave an inhibition in vivo at 12.5 mg/kg [31] of 88% and a Time [32] of 21 days.
